Columns and labels:
systemic TF1a xenografts = assay: Systemic TF1a xenografts in SCID mice (AML model); assay type: in vivo; settings: TF1a-SCID; mRNA LNPs 3 mg/kg one time per week, cytarabine 2 mg/kg three times per week, IV, four weeks
Method: LNPs comprising the cationic lipid MC3 were tested using the optimal percentage of PEG-lipid and optimal PEG length (1.5% DSPE, C18, as described in Example 8), for in vivo targeted delivery of SQT-PUMA-BH3 in two different in vivo models of acute myeloid leukemia (AML). One model used systemic TF1a xenografts in SCID mice. The other model used systemic HEL xenografts in SCID mice. Each of these models uses a human erythroleukemia cell line. The HEL erythroleukia cell line is described in, for example, Martin, P. and Papayannopoulou, T. (1982) Science 216:1233-1235. The TF1 erythroleukmia cell line (from which TF1a is derived) is described in, for example, Kitamura, T. et al. (1989) J. Cell. Physiol. 140:323-334. Unless otherwise noted, mRNAs were fully modified with N1-methlypseudouridine to avoid stimulating an innate immune response to said mRNAs when administered in vivo.
In a first set of experiments, TF1a cells stably expressing luciferase (TF1α-luc cells) were implanted systemically in SCID mice. Tumor growth was measured by whole body bioluminescent imaging (BLI) in anaesthetized animals following SC injection of 150 mg/kg D-Luciferin, in an imaging chamber (Spectrum CT). Animals showing an increasing tumor burden at day 12 post-cell implantation were recruited for treatment. […]

Hep3B SC tumors = assay: Combination with sorafenib in SCID mice bearing Hep3B SC tumors; assay type: in vivo; settings: Sorafenib 10 mg/kg orally daily alone, three weeks, end of study
Method: SCID mice bearing Hep3B SC tumors (tumor size range 140-227 mm^3; average=183 mm^3) were dosed over a three week period with a combination of 0.5% methyl cellulose daily and SQT IV at 1.5 mg/kg alone weekly (Days 1, 8 and 15; Group 1), Sorafenib (in 0.5% methyl cellulose) at 10 mg/kg orally daily alone (Group 2), mmRNA encoding SQT-PUMA-BH3 (comprising a miR122 binding site) weekly at 1.5 mg/kg IV alone (Group 3) or a combination of mmRNA encoding SQT-PUMA-BH3 (with miR122 binding site) at 1.5 mg/kg IV weekly with sorafenib at 10 mg/kg orally daily (Group 4; 10 animals per group).

MCL1 = MCL1 downregulation by Western blotting in Hep3B cells; assay type: cell-based, human; settings: 24 hours, sorafenib 10 uM
Method: A first series of experiments was conducted to determine whether specific targeting of MCL1 recapitulates sorafenib synergy with SQT-BH3 in cells in vitro.

Row | SMILES | systemic tumor growth (BLI) (systemic TF1a xenografts) | tumor growth inhibition (TGI) (Hep3B SC tumors) [%] | MCL1 level (Western blotting) (MCL1)
1 | Nc1ccn([C@@H]2O[C@H](CO)[C@@H](O)[C@@H]2O)c(=O)n1 [cytarabine, reference compound] | did inhibit systemic tumor growth | – | –
2 | CNC(=O)c1cc(Oc2ccc(NC(=O)Nc3ccc(Cl)c(C(F)(F)F)c3)cc2)ccn1 [sorafenib, reference compound] | – | 38 | downregulates MCL1
